According to PubChem BioAssay (NCI):
Several values for one entry are separate records, joined by “and”; a condition that tells them apart may be missing. Equal entries are not always repeated.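 Compound exposure: 48 hours, 5 concentrations, 96-well plates. GI50 is the concentration that inhibits growth by half. TGI is the concentration that stops growth completely.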 Where a SMILES comes first, the peptide text is derived from it. The star is where a group is joined. Boc = CC(C)(C)OC(=O)*; Bn = c1ccc(C*)cc1

Legend:
Test in all cases: DTP human tumour cell line panel, 48 h
BT-549 breast = system: BT-549 breast
DU-145 prostate = system: DU-145 prostate
T-47D breast = system: T-47D breast
DLD-1 colon = system: DLD-1 colon
DMS 114 small cell lung = system: DMS 114 small cell lung
DMS 273 small cell lung = system: DMS 273 small cell lung
HOP-18 NSCLC = system: HOP-18 NSCLC
KM20L2 colon = system: KM20L2 colon
LXFL 529 NSCLC = system: LXFL 529 NSCLC
M19-MEL melanoma = system: M19-MEL melanoma
SNB-78 CNS = system: SNB-78 CNS
XF 498 CNS = system: XF 498 CNS
RXF-631 renal = system: RXF-631 renal

Compound | TGI (BT-549 breast) | TGI (DU-145 prostate) [µM] | TGI (T-47D breast) | further results
O=S(=O)(c1cc(Cl)ccc1Cl)N1CCN(c2cccc(Cl)c2)CC1 | > 100 µM | > 100 | > 100 µM | 
Cc1cc(S(=O)(=O)NC(=NCCc2ccccc2)NN)c(S)cc1Cl | 66.2 µM | 34.6 | 63 µM | 
CCCCC1(O)CC2CC1C(C)C2(C)C (stereo unspecified) | > 100 µM | > 100 |  | 
CC(=O)Oc1ccc2cc(-c3ccc(OC(C)=O)c(OC(C)=O)c3)c(=O)oc2c1 | > 100 µM | > 100 | 62.1 µM | 
COc1ccc(/C=C2\CCC(CCN3CCOCC3)C2=O)cc1 (stereo unspecified) |  |  |  | TGI (DLD-1 colon): > 100 µM; TGI (DMS 114 small cell lung): > 100 µM; TGI (DMS 273 small cell lung): > 100 µM; TGI (HOP-18 NSCLC): > 100 µM; TGI (KM20L2 colon): > 100 µM; TGI (LXFL 529 NSCLC): > 100 µM; TGI (M19-MEL melanoma): > 100 µM; TGI (SNB-78 CNS): > 100 µM; TGI (XF 498 CNS): > 100 µM
COC12OCCN(C)C1=CC(=O)C1(C)N=NCC12 (stereo unspecified) |  |  |  | TGI (DLD-1 colon): > 100 µM; TGI (DMS 114 small cell lung): > 100 µM; TGI (DMS 273 small cell lung): > 100 µM; TGI (HOP-18 NSCLC): > 100 µM; TGI (LXFL 529 NSCLC): > 100 µM; TGI (M19-MEL melanoma): > 100 µM; TGI (SNB-78 CNS): > 100 µM
CCNc1nnc(-c2ccccc2Nc2ccccc2-c2nnc(NCC)s2)s1 | > 79.7 µM | 40.1 | > 84.8 µM | 
CN(C)c1ccc(/C=C(\NC(=O)c2ccccc2)C(=O)Nc2cccc(C(=O)NCCCO)c2)cc1 | > 100 µM | > 100 | > 100 µM | 
Cc1cc2c(cc1Cl)SC(NNC1=NCCN1)=NS2(=O)=O | > 10 µM | > 10 | > 10 µM | 
CC(C)Cn1cnc2c(Cl)nc3ccccc3c21 | > 100 µM | > 100 | > 100 µM | 
CC1=CC(=O)N(n2c(-c3ccccc3)n[nH]c2=O)C1=O | > 100 µM | > 100 | > 100 µM | 
CN1CCN(Cc2nc3c(s2)CCc2sccc2-3)CC1 | > 100 µM | > 100 | > 100 µM | 
CC1=N[C@@](C)(C2CC3C=CC2C3=O)COC1=O (stereo partly specified) | > 100 µM | > 100 | > 100 µM | 
CC(C(=O)n1ccnc1)N1c2ccccc2Sc2ccccc21 (stereo unspecified) | > 100 µM | > 100 | > 100 µM | 
CC1=C(C(=O)CC(=O)C(=O)Nc2ccc(C)c(C)c2)Sc2ccccc2N1 |  |  |  | TGI (DLD-1 colon): > 100 µM; TGI (DMS 114 small cell lung): > 100 µM; TGI (DMS 273 small cell lung): > 100 µM; TGI (HOP-18 NSCLC): > 100 µM; TGI (KM20L2 colon): > 100 µM; TGI (LXFL 529 NSCLC): > 100 µM; TGI (M19-MEL melanoma): > 100 µM; TGI (SNB-78 CNS): > 100 µM; TGI (XF 498 CNS): > 100 µM
COC(=O)Cn1c(=O)oc2nc(-c3ccccc3)cc(C(F)(F)F)c21 | > 100 µM | > 100 | > 100 µM | 
CS(=O)(=O)O[C@H]1[C@H](O)c2ccccc2[C@@H]1N=[N+]=[N-] | > 100 µM | > 100 |  | 
CC(=O)n1[nH]c(=O)n(-c2ccccc2)c1=O | > 100 µM | > 100 | > 100 µM | 

Compound | TGI (BT-549 breast) | TGI (DU-145 prostate) [µM] | TGI (T-47D breast) | further results
CCOC(=O)C1(N)CC1 |  | > 100 | > 100 µM | 
O=C(NCCCN(CCCCN(CCCNC(=O)c1cc(S(=O)(=O)O)cc(O)c1O)C(=O)c1cc(S(=O)(=O)O)cc(O)c1O)C(=O)c1cc(S(=O)(=O)O)cc(O)c1O)c1cc(S(=O)(=O)O)cc(O)c1O | > 100 µM | > 100 | > 100 µM | 
CC(C)OP(=O)(OC(C)C)C(=NCCN=C(NNc1ccccc1[N+](=O)[O-])P(=O)(OC(C)C)OC(C)C)NNc1ccccc1[N+](=O)[O-] |  |  |  | TGI (DLD-1 colon): > 100 µM; TGI (DMS 114 small cell lung): > 100 µM; TGI (DMS 273 small cell lung): > 100 µM; TGI (KM20L2 colon): 60.2 µM; TGI (LXFL 529 NSCLC): > 100 µM; TGI (M19-MEL melanoma): > 100 µM
CN1CC2=C(NC(=S)NC2c2ccccc2Cl)/C(=C/c2ccccc2Cl)C1 (stereo unspecified) |  | > 100 | > 100 µM | 
Cc1ccc(C(=O)Oc2ccc(/C=C3\CCC/C(=C\c4ccc(OC(=O)c5ccc(C)cc5)cc4)C3=O)cc2)cc1 | > 100 µM | > 100 | > 100 µM | 
CNC(=O)C(CC(C)C)NC(=O)C(C)NC(=O)C(Cc1ccc(OCc2ccccc2)cc1)NC(=O)C(COCc1ccccc1)NC(=O)OC(C)(C)C (stereo unspecified) (Boc-S(Bn)Y(Bn)AL-NHMe; configuration not given here) | 55.5 µM and 40.4 µM | > 100 | > 74 µM and 27.1 µM | GI50 (T-47D breast): 28.2 µM and 5.15 µM
Cc1ccc(Sc2ccccc2N)cc1 |  |  |  | TGI (DMS 114 small cell lung): > 100 µM; TGI (DMS 273 small cell lung): > 100 µM; TGI (HOP-18 NSCLC): > 100 µM; TGI (KM20L2 colon): > 100 µM; TGI (LXFL 529 NSCLC): 32.9 µM; TGI (M19-MEL melanoma): > 100 µM; TGI (RXF-631 renal): > 100 µM; TGI (SNB-78 CNS): > 100 µM
Cc1ccsc1C(=S)Nc1ccc(Cl)c(/C=N/OC(C)C)c1 | > 100 µM | > 100 | > 100 µM | 
Cc1nc2c3c(ccc2[nH]c1=O)C(=O)c1ccccc1C3=O |  |  |  | TGI (DLD-1 colon): > 100 µM; TGI (DMS 114 small cell lung): > 100 µM; TGI (HOP-18 NSCLC): > 100 µM; TGI (KM20L2 colon): > 100 µM; TGI (LXFL 529 NSCLC): > 100 µM; TGI (M19-MEL melanoma): > 100 µM; TGI (XF 498 CNS): > 100 µM
CN(/N=C\c1ccnc2ccccc12)c1ccccc1 |  |  |  | TGI (DLD-1 colon): 64.6 µM; TGI (DMS 114 small cell lung): 48.7 µM; TGI (DMS 273 small cell lung): 39.7 µM; TGI (HOP-18 NSCLC): > 100 µM; TGI (LXFL 529 NSCLC): 79.7 µM; TGI (M19-MEL melanoma): 54 µM; TGI (SNB-78 CNS): > 100 µM; TGI (XF 498 CNS): 47.5 µM
COc1ccc(/C=C/C(=O)c2sc(-c3cccnc3)nc2C)cc1 |  |  |  | TGI (DLD-1 colon): > 100 µM; TGI (DMS 114 small cell lung): > 100 µM; TGI (DMS 273 small cell lung): > 100 µM; TGI (HOP-18 NSCLC): > 100 µM; TGI (KM20L2 colon): > 100 µM; TGI (M19-MEL melanoma): > 100 µM; TGI (RXF-631 renal): > 100 µM; TGI (SNB-78 CNS): > 100 µM
O=[N+]([O-])C(/C=C(\Cl)[N+](=O)[O-])=C(N1CCCCC1)N1CCCCC1 |  | > 100 | > 100 µM | 
CCOC(=O)N/N=C(\CC)OCC | > 100 µM | > 100 | > 100 µM | 
O=C(Cc1nc2ccc([N+](=O)[O-])cc2[nH]c1=O)C(=O)Nc1ccccc1[N+](=O)[O-] |  |  |  | TGI (DLD-1 colon): > 100 µM; TGI (DMS 114 small cell lung): > 100 µM; TGI (DMS 273 small cell lung): > 100 µM; TGI (KM20L2 colon): > 100 µM; TGI (LXFL 529 NSCLC): > 100 µM; TGI (M19-MEL melanoma): > 100 µM
COc1ccc2c(c1OC)C(=O)N/C2=C\c1c(CCN(C)C)cc2c(c1OC)OCO2 | > 100 µM | > 100 | > 100 µM | 
CCOC(=O)c1sc2nc1CSc1sc(=S)sc1SCc1nc(sc1C(=O)OCC)-c1nc(c(C(=O)OCC)s1)CSc1sc(=S)sc1SCc1nc-2sc1C(=O)OCC | > 10 µM |  | > 10 µM | 
O=C(Nc1cccc(C(=O)NCCCO)c1)/C(=C/c1ccccc1)NC(=O)c1ccccc1 | > 100 µM | > 100 | > 100 µM | 
